target: T1, human GPR119 (Homo sapiens, UniProt Q8TDV5); assay: GPR119 activation / intracellular cAMP stimulation, AlphaScreen cAMP Assay in Min-6/hGPR119 cells; assay type: cell-based; conditions: MIN6 cells stably transfected with human GPR119, 45 minutes incubation at room temperature
T1 construct: expression vector for human GPR119 cDNA (Acc. No. NP_848566); expressed in transfected cells
T1 sequence (Q8TDV5 1-335): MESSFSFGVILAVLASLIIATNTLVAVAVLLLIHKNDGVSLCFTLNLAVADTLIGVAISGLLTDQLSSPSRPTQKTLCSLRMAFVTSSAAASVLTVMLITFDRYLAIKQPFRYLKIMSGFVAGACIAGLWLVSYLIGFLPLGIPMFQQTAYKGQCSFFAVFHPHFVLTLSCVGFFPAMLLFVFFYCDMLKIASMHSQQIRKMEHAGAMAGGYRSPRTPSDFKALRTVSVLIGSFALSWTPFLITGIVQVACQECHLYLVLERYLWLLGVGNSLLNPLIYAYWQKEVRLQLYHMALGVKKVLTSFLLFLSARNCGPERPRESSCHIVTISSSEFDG
Procedure: The compounds of formula I according to the invention modulate the activity of the G-protein-coupled receptor GPR119. The effect of the compounds on the activation of GPR119 and on the stimulation of intracellular cAMP concentration is determined using the AlphaScreen cAMP Assay Kit (Cat. No. #6760625R) made by PerkinElmer.
MIN6 cells [Miyazaki J et al., Endocrinology. 1990 July; 127(1):126-32] are stably transfected with an expression vector for human GPR119 cDNA (Acc. No. NP_848566). Min-6/hGPR119 cells are cultured in DMEM, 10% FBS, 50 μM β-mercaptoethanol, 0.3 mg/mL Geniticin, 2 mM GlutaMAX at 37° C., 5% CO2. For the assay, the cells are seeded in Optiplates (white, 384-well, 160W-barcoded, TC, sterile with lid, Cat. No. #6007688 (Perkin Elmer); 10000 cells/well; 50 μL). The plates covered with lids are then incubated for 24 hours at 37° C., 5% CO2. After the medium is aspirated from the wells completely, 10 ill of the test compound are added, the compounds are diluted using stimulating buffer (140 mM NaCl, 3.6 mM KCl, 0.5 mM NaH2PO4, 0.5 mM MgSO4, 1.5 mM CaCl2, 10 mM Hepes, 5 mM NaHCO3; pH 7.4. 0.5 mM IBMX and 0.1% BSA, the final DMSO concentration is 1%). After 45 minutes incubation at room temperature (approx. 20° C.), the cAMP concentrations are determined using the AlphaScreen cAMP Assay Kit (Cat. No. #6760625R from PerkinElmer).

Point of comparison: `CC(C)(C)OC(=O)N1CCC2(CC1)CC1(Cc3cc(-c4ccc(S(C)(=O)=O)nc4)ncc3O1)C2` [Example 13, 5-(6-Methanesulfonyl-pyridin-3-yl)-1″-tert-butoxycarbonyl-dispiro[2,3-dihydrofuro[2,3-c]pyridine-2,1′-cyclobutane-3′,4″-piperidine]], EC50 42 nM. Against it:
- CC(C)c1nc(N2CCC3(CC2)CC2(Cc4cc(C5=CCN(S(C)(=O)=O)CC5)ncc4O2)C3)no1 [Example 25, 1″-(5-Isopropyl-[1,2,4]oxadiazol-3-yl)-5-(1-methanesulfonyl-1,2,3,6-tetrahydro-pyridin-4-yl)-dispiro[2,3-dihydrofuro[2,3-c]pyridine-2,1′-cyclobutane-3′,4″-piperidine]] — 8.4-fold lower, 5 nM
- C[C@H](OC(=O)N1CCC2(CC1)CC1(Cc3cc(C4=CCN(S(C)(=O)=O)CC4)ncc3O1)C2)C(F)(F)F [Example 27, 1″-[(S)-2,2,2-Trifluoro-1-methyl-ethyloxycarbonyl]-5-(1-methanesulfonyl-1,2,3,6-tetrahydro-pyridin-4-yl)-dispiro[2,3-dihydrofuro[2,3-c]pyridine-2,1′-cyclobutane-3′,4″-piperidine]] — 10-fold lower, 4 nM
- CC(C)c1noc(N2CCC3(CC2)CC2(Cc4cc(C5=CCN(S(C)(=O)=O)CC5)ncc4O2)C3)n1 [Example 23, 1″-(3-Isopropyl-[1,2,4]oxadiazol-5-yl)-5-(1-methanesulfonyl-1,2,3,6-tetrahydro-pyridin-4-yl)-dispiro[2,3-dihydrofuro[2,3-c]pyridine-2,1′-cyclobutane-3′,4″-piperidine]] — 3.5-fold lower, 12 nM
- CC(C)(C)OC(=O)N1CCC2(CC1)CC1(Cc3cc(C4=CCN(S(C)(=O)=O)CC4)ncc3O1)C2 [Example 2, 5-(1-Methanesulfonyl-1,2,3,6-tetrahydro-pyridin-4-yl)-1″-tert-butoxycarbonyl-dispiro[2,3-dihydrofuro[2,3-c]pyridine-2,1′-cyclobutane-3′,4″-piperidine]] — within 1.5-fold, 50 nM
- CC(C)OC(=O)N1CCC2(CC1)CC1(Cc3cc(C4=CCN(S(C)(=O)=O)CC4)ncc3O1)C2 [Example 10, 1″-(Isopropyloxycarbonyl)-5-(1-methanesulfonyl-1,2,3,6-tetrahydro-pyridin-4-yl)-dispiro[2,3-dihydrofuro[2,3-c]pyridine-2,1′-cyclobutane-3′,4″-piperidine]] — 2.6-fold lower, 16 nM
- CCCc1cnc(N2CCC3(CC2)CC2(Cc4cc(C5=CCN(S(C)(=O)=O)CC5)ncc4O2)C3)nc1 [Example 16, 5-(1-Methanesulfonyl-1,2,3,6-tetrahydro-pyridin-4-yl)-1″-(5-n-propyl-pyrimidin-2-yl)-dispiro[2,3-dihydrofuro[2,3-c]pyridine-2,1′-cyclobutane-3′,4″-piperidine]] — 10-fold lower, 4 nM
- CC1(OC(=O)N2CCC3(CC2)CC2(Cc4cc(C5=CCN(S(C)(=O)=O)CC5)ncc4O2)C3)CC1 [Example 12, 5-(1-Methanesulfonyl-1,2,3,6-tetrahydro-pyridin-4-yl)-1″-(1-methyl-cyclopropyloxycarbonyl)-dispiro[2,3-dihydrofuro[2,3-c]pyridine-2,1′-cyclobutane-3′,4″-piperidine]] — 3.8-fold lower, 11 nM
- CCc1cnc(N2CCC3(CC2)CC2(Cc4cc(C5=CCN(S(C)(=O)=O)CC5)ncc4O2)C3)nc1 [Example 28, 1″-(5-Ethyl-pyrimidin-2-yl)-5-(1-methanesulfonyl-1,2,3,6-tetrahydro-pyridin-4-yl)-dispiro[2,3-dihydrofuro[2,3-c]pyridine-2,1′-cyclobutane-3′,4″-piperidine]] — 3.8-fold lower, 11 nM
- CS(=O)(=O)N1CC=C(c2cc3c(cn2)OC2(C3)CC3(CCN(c4nnc(C(F)(F)F)s4)CC3)C2)CC1 [Example 20, 5-(1-Methanesulfonyl-1,2,3,6-tetrahydro-pyridin-4-yl)-1″-(5-trifluoromethyl-[1,3,4]thiadiazol-2-yl)-dispiro[2,3-dihydrofuro[2,3-c]pyridine-2,1′-cyclobutane-3′,4″-piperidine]] — 4.2-fold lower, 10 nM
- CS(=O)(=O)N1CC=C(c2cc3c(cn2)OC2(C3)CC3(CCN(c4ncc(Cl)cn4)CC3)C2)CC1 [Example 9, 1″-(5-Chloro-pyrimidin-2-yl)-5-(1-methanesulfonyl-1,2,3,6-tetrahydro-pyridin-4-yl)-dispiro[2,3-dihydrofuro[2,3-c]pyridine-2,1′-cyclobutane-3′,4″-piperidine]] — 7-fold lower, 6 nM
- CC(C)(F)CN1CCC2(CC1)CC1(Cc3cc(-c4ccc(S(C)(=O)=O)cc4)ncc3O1)C2 [Example 6, 1″-(2-Fluoro-2-methyl-propyl)-5-(4-methylsulfonyl-phenyl)-dispiro[2,3-dihydrofuro[2,3-c]pyridine-2,1′-cyclobutane-3′,4″-piperidine]] — 3.2-fold higher, 135 nM
- CC1=C(c2cc3c(cn2)OC2(C3)CC3(CCN(C(=O)OC(C)(C)C)CC3)C2)CCN(S(C)(=O)=O)C1 [Example 8, 5-(1-Methanesulfonyl-5-methyl-1,2,3,6-tetrahydro-pyridin-4-yl)-1″-tert-butoxycarbonyl-dispiro[2,3-dihydrofuro[2,3-c]pyridine-2,1′-cyclobutane-3′,4″-piperidine]] — 2.2-fold lower, 19 nM
- CSc1ccc(-c2cc3c(cn2)OC2(C3)CC3(CCN(C(=O)OC(C)(C)C)CC3)C2)c(C#N)c1 [Example 30, 5-(2-Cyano-4-methylsulfanyl-phenyl)-1″-tert-butoxycarbonyl-dispiro[2,3-dihydrofuro[2,3-c]pyridine-2,1′-cyclobutane-3′,4″-piperidine]] — 3-fold lower, 14 nM
- CS(=O)(=O)N1CC=C(c2cc3c(cn2)OC2(C3)CC3(CCN(c4ccc(C(F)(F)F)cn4)CC3)C2)CC1 [Example 11, 5-(1-Methanesulfonyl-1,2,3,6-tetrahydro-pyridin-4-yl)-1″-(5-trifluoromethyl-pyridin-2-yl)-dispiro[2,3-dihydrofuro[2,3-c]pyridine-2,1′-cyclobutane-3′,4″-piperidine]] — 3.2-fold lower, 13 nM
- CC(C)(C)OC(=O)N1CCC2(CC1)CC1(Cc3cc(-c4ccc(C#N)cc4F)ncc3O1)C2 [Example 14, 5-(4-Cyano-2-fluoro-phenyl)-1″-tert-butoxycarbonyl-dispiro[2,3-dihydrofuro[2,3-c]pyridine-2,1′-cyclobutane-3′,4″-piperidine]] — within 1.5-fold, 60 nM
- CS(=O)(=O)N1CC=C(c2cc3c(cn2)OC2(C3)CC3(CCN(c4ncc(C5CC5)cn4)CC3)C2)CC1 [Example 17, 1″-(5-Cyclopropyl-pyrimidin-2-yl)-5-(1-methanesulfonyl-1,2,3,6-tetrahydro-pyridin-4-yl)-dispiro[2,3-dihydrofuro[2,3-c]pyridine-2,1′-cyclobutane-3′,4″-piperidine]] — 4.7-fold lower, 9 nM
- C[C@@H](OC(=O)N1CCC2(CC1)CC1(Cc3cc(C4=CCN(S(C)(=O)=O)CC4)ncc3O1)C2)C(F)(F)F [Example 33, 5-(1-Methanesulfonyl-1,2,3,6-tetrahydro-pyridin-4-yl)-1″-[(R)-2,2,2-trifluoro-1-methyl-ethyloxycarbonyl]-dispiro[2,3-dihydrofuro[2,3-c]pyridine-2,1′-cyclobutane-3′,4″-piperidine]] — 5.2-fold lower, 8 nM
- CS(=O)(=O)c1ccc(-c2cc3c(cn2)OC2(C3)CC3(CCN(CC4(C(F)(F)F)CC4)CC3)C2)cc1 [Example 5, 5-(4-Methylsulfonyl-phenyl)-1″-[(1-trifluoromethyl-cyclopropyl)-methyl]-dispiro[2,3-dihydrofuro[2,3-c]pyridine-2,1′-cyclobutane-3′,4″-piperidine]] — 8.6-fold higher, 362 nM
